Experimental data as given in PubChem BioAssay AID330 (DTP/NCI, 2004).
“And” between values parts separate entries of the source, which are not always exact repeats. Identical values can stand only once. Inconclusive results and toxic doses are left out. How the source made its calls: active means survival T/C of 150% or more; inactive means T/C below 125% in these data.

Test system: P388 leukemia ip, CD2F1 mice, survival T/C
Assay: NCI In Vivo Anticancer Drug Screen. Data for tumor model P388 Leukemia (intraperitoneal) in CD2F1 (CDF1) mice
Conditions: endpoint: median survival time, higher = longer survival
In short: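 Mice carrying the transplanted tumor received test compound or vehicle. Survival was recorded in each group, and the value is the treated-group measurement divided by that of the vehicle-treated control group.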

[1] = dose: 25.0 mg/kg/injection, schedule: Q01DX009 (ip), vehicle: saline
[2] = dose: 50.0 mg/kg/injection, schedule: Q01DX009 (ip), vehicle: saline
[3] = dose: 100.0 mg/kg/injection, schedule: Q01DX009 (ip), vehicle: saline
[4] = dose: 25.0 mg/kg/injection, schedule: Q01DX009 (ip), vehicle: saline with Tween-80
[5] = dose: 50.0 mg/kg/injection, schedule: Q01DX009 (ip), vehicle: saline with Tween-80
[6] = dose: 100.0 mg/kg/injection, schedule: Q01DX009 (ip), vehicle: saline with Tween-80
[7] = dose: 12.5 mg/kg/injection, schedule: Q01DX009 (ip), vehicle: saline with Tween-80
[8] = dose: 60.0 mg/kg/injection, schedule: Q01DX005 (ip), vehicle: saline
[9] = dose: 50.0 mg/kg/injection, schedule: Q01DX009 (ip), vehicle: Klucel (hydroxypropylcellulose) (HPC)
[10] = dose: 100.0 mg/kg/injection, schedule: Q01DX009 (ip), vehicle: Klucel (hydroxypropylcellulose) (HPC)
[11] = dose: 200.0 mg/kg/injection, schedule: Q01DX009 (ip), vehicle: Klucel (hydroxypropylcellulose) (HPC)

Measured: T/C

CN1OC(=O)OC(C)(c2ccccc2)C1=O (centres undefined)
inactive: dose: 50.0 mg/kg/injection, schedule: Q01DX005 (ip), vehicle: saline with Tween-80 98 % of control | dose: 100.0 mg/kg/injection, schedule: Q01DX005 (ip), vehicle: saline with Tween-80 97 % of control | dose: 200.0 mg/kg/injection, schedule: Q01DX005 (ip), vehicle: saline with Tween-80 97 % of control

Cc1nnc(SCC2=C(C(=O)O)N3C(=O)C(NC(=O)Cn4cnnn4)C3SC2)s1 (centres undefined)
inactive: [1] 112 % of control | dose: 400.0 mg/kg/injection, schedule: Q01DX009 (ip), vehicle: saline 112 % of control

CC(C)CC(N)C(=O)NC(Cc1c[nH]c2ccccc12)C(N)=O (centres undefined)
inactive: [2] 93 % of control | [3] 98 % of control | dose: 200.0 mg/kg/injection, schedule: Q01DX009 (ip), vehicle: saline 99 % of control

CCCCCCCCCCCCCCCCC/C=C1\CC(=O)OC1=O
inactive: [4] 103 % of control | [5] 97 % of control | [6] 89 % of control

COc1ccc2ccccc2c1/C=[N+](/[O-])c1ccccc1
inactive: dose: 60.0 mg/kg/injection, schedule: Q01DX005 (ip), vehicle: Klucel (hydroxypropylcellulose) (HPC) 109 % of control | dose: 120.0 mg/kg/injection, schedule: Q01DX005 (ip), vehicle: Klucel (hydroxypropylcellulose) (HPC) 110 % of control | dose: 240.0 mg/kg/injection, schedule: Q01DX005 (ip), vehicle: Klucel (hydroxypropylcellulose) (HPC) 112 % of control

N#CCCN(CCC#N)c1ccc(CC2C(=O)N(c3cccc(S(=O)(=O)O)c3)N=C2C(=O)O)cc1 (centres undefined)
inactive: dose: 60.0 mg/kg/injection, schedule: Q01DX005 (ip), vehicle: saline with Tween-80 93 % of control | dose: 120.0 mg/kg/injection, schedule: Q01DX005 (ip), vehicle: saline with Tween-80 96 % of control | dose: 240.0 mg/kg/injection, schedule: Q01DX005 (ip), vehicle: saline with Tween-80 95 % of control

N#CCCSC(=S)C1CCCC1=N (centres undefined)
inactive: [7] 114 % of control and 123 % of control | [4] 110 % of control and 116 % of control | [5] 104 % of control and 109 % of control | [6] 102 % of control and 116 % of control

O=[N+]([O-])c1csc([N+](=O)[O-])c1
inactive: dose: 9.37 mg/kg/injection, schedule: Q01DX009 (ip), vehicle: saline with Tween-80 109 % of control | dose: 18.75 mg/kg/injection, schedule: Q01DX009 (ip), vehicle: saline with Tween-80 118 % of control | dose: 37.5 mg/kg/injection, schedule: Q01DX009 (ip), vehicle: saline with Tween-80 122 % of control | dose: 75.0 mg/kg/injection, schedule: Q04DX003 (ip), vehicle: saline with Tween-80 100 % of control | dose: 150.0 mg/kg/injection, schedule: Q04DX003 (ip), vehicle: saline with Tween-80 100 % of control | dose: 300.0 mg/kg/injection, schedule: Q04DX003 (ip), vehicle: saline with Tween-80 109 % of control

Clc1ccc2nc(CI)c(CI)nc2c1
inactive: dose: 5.5 mg/kg/injection, schedule: Q01DX009 (ip), vehicle: saline with Tween-80 104 % of control | dose: 8.3 mg/kg/injection, schedule: Q01DX009 (ip), vehicle: saline with Tween-80 95 % of control | [7] 100 % of control | dose: 18.7 mg/kg/injection, schedule: Q01DX009 (ip), vehicle: saline with Tween-80 118 % of control | dose: 25.0 mg/kg/injection, schedule: Q04DX003 (ip), vehicle: saline with Tween-80 118 % of control | dose: 50.0 mg/kg/injection, schedule: Q04DX003 (ip), vehicle: saline with Tween-80 118 % of control | dose: 100.0 mg/kg/injection, schedule: Q04DX003 (ip), vehicle: saline with Tween-80 122 % of control

C/C(=N\NC(=S)N1CCN(c2ccccn2)CC1)c1ccccn1
inactive: dose: 12.5 mg/kg/injection, schedule: Q01DX005 (ip), vehicle: water 103 % of control | dose: 25.0 mg/kg/injection, schedule: Q01DX005 (ip), vehicle: water 108 % of control

CCC(=O)c1nc(N)[nH]c1CC
inactive: dose: 2.5 mg/kg/injection, schedule: Q01DX005 (ip), vehicle: Klucel (hydroxypropylcellulose) (HPC) 101 % of control | dose: 5.0 mg/kg/injection, schedule: Q01DX005 (ip), vehicle: Klucel (hydroxypropylcellulose) (HPC) 93 % of control | dose: 10.0 mg/kg/injection, schedule: Q01DX005 (ip), vehicle: Klucel (hydroxypropylcellulose) (HPC) 102 % of control

O=C(O)C(O)C(F)(F)C(F)(F)C(F)(F)C(F)(F)C(O)C(=O)O (centres undefined)
inactive: [8] 93 % of control | dose: 120.0 mg/kg/injection, schedule: Q01DX005 (ip), vehicle: saline 93 % of control | dose: 240.0 mg/kg/injection, schedule: Q01DX005 (ip), vehicle: saline 86 % of control

C1=NC(c2ccccn2)=NNC(c2ccccn2)=C1c1ccccc1
inactive: dose: 12.5 mg/kg/injection, schedule: Q01DX009 (ip), vehicle: Klucel (hydroxypropylcellulose) (HPC) 97 % of control | dose: 25.0 mg/kg/injection, schedule: Q01DX009 (ip), vehicle: Klucel (hydroxypropylcellulose) (HPC) 98 % of control | [9] 93 % of control | [10] 96 % of control | [11] 93 % of control

NC(N)=NCCC(=O)c1cnc(N)[nH]1
inactive: dose: 8.75 mg/kg/injection, schedule: Q01DX005 (ip), vehicle: Klucel (hydroxypropylcellulose) (HPC) 106 % of control | dose: 17.5 mg/kg/injection, schedule: Q01DX005 (ip), vehicle: Klucel (hydroxypropylcellulose) (HPC) 107 % of control | dose: 35.0 mg/kg/injection, schedule: Q01DX005 (ip), vehicle: Klucel (hydroxypropylcellulose) (HPC) 100 % of control

O=C1C=CC(=O)C2=C1C1CCCC1C1CCCC21 (centres undefined)
inactive: [1] 123 % of control | [2] 105 % of control | [3] 113 % of control

CC(N)=S=O
inactive: dose: 15.0 mg/kg/injection, schedule: Q01DX005 (ip), vehicle: saline 112 % of control | dose: 30.0 mg/kg/injection, schedule: Q01DX005 (ip), vehicle: saline 103 % of control | [8] 106 % of control and 94 % of control

O=c1ccc2cc3ccoc3c(OCCCCCCBr)c2o1
inactive: dose: 100.0 mg/kg/injection, schedule: Q04DX002 (ip), vehicle: Klucel (hydroxypropylcellulose) (HPC) 91 % of control | dose: 200.0 mg/kg/injection, schedule: Q04DX002 (ip), vehicle: Klucel (hydroxypropylcellulose) (HPC) 99 % of control | dose: 400.0 mg/kg/injection, schedule: Q04DX002 (ip), vehicle: Klucel (hydroxypropylcellulose) (HPC) 98 % of control

CC(C)(OCc1ccccc1)c1ccccc1P(c1ccccc1)c1ccccc1
inactive: [9] 101 % of control | [10] 101 % of control | [11] 110 % of control

CCOC(=O)CCC(NC(=O)c1ccc(NCc2cnc3nc(N)nc(N)c3c2)cc1)C(=O)OCC (centres undefined)
active: dose: 0.25 mg/kg/injection, schedule: Q01DX005 (ip), vehicle: saline with Tween-80 162 % of control | dose: 0.5 mg/kg/injection, schedule: Q01DX005 (ip), vehicle: saline with Tween-80 158 % of control and 183 % of control | dose: 1.0 mg/kg/injection, schedule: Q01DX005 (ip), vehicle: saline with Tween-80 183 % of control and 218 % of control | dose: 1000.0 micrograms/kg/injection, schedule: Q01DX005 (ip), vehicle: saline with Tween-80 151 % of control
inactive: dose: 2.0 mg/kg/injection, schedule: Q01DX005 (ip), vehicle: saline with Tween-80 104 % of control | dose: 125.0 micrograms/kg/injection, schedule: Q01DX005 (ip), vehicle: saline with Tween-80 114 % of control

COC(=O)C1(C)CCCC2(C)C3=C(CCC12)C(=O)c1occc1CC3 (centres undefined)
inactive: dose: 0.37 mg/kg/injection, schedule: Q01DX009 (ip), vehicle: Klucel (hydroxypropylcellulose) (HPC) 100 % of control | dose: 0.75 mg/kg/injection, schedule: Q01DX009 (ip), vehicle: Klucel (hydroxypropylcellulose) (HPC) 103 % of control | dose: 1.5 mg/kg/injection, schedule: Q01DX009 (ip), vehicle: Klucel (hydroxypropylcellulose) (HPC) 100 % of control | dose: 3.0 mg/kg/injection, schedule: Q01DX009 (ip), vehicle: Klucel (hydroxypropylcellulose) (HPC) 99 % of control | dose: 6.0 mg/kg/injection, schedule: Q01DX009 (ip), vehicle: Klucel (hydroxypropylcellulose) (HPC) 108 % of control

CC(=O)OCC1OC(n2ncc(=S)[nH]c2=O)C2OC(C)(C)OC12 (centres undefined)
inactive: [5] 92 % of control | [6] 95 % of control | dose: 200.0 mg/kg/injection, schedule: Q01DX009 (ip), vehicle: saline with Tween-80 97 % of control

CC(C)=NN(C)/C=N/S(=O)(=O)c1ccccc1
inactive: dose: 50.0 mg/kg/injection, schedule: Q01DX005 (ip), vehicle: Klucel (hydroxypropylcellulose) (HPC) 100 % of control | dose: 100.0 mg/kg/injection, schedule: Q01DX005 (ip), vehicle: Klucel (hydroxypropylcellulose) (HPC) 97 % of control | dose: 200.0 mg/kg/injection, schedule: Q01DX005 (ip), vehicle: Klucel (hydroxypropylcellulose) (HPC) 98 % of control
